Measured values taken from patent publication US12638438B2, “Screening methods using canine T2R receptors and pet food products and compositions identified using the same” (MARS, INCORPORATED, priority 2015, dated 2026).
Each block holds one molecule with its values, some of them ahead of it.

How the values were obtained:
canine T2R5 = biological target: T1, canine T2R5 (Canis lupus, UniProt Q2ABD6); test: Canine T2R5 activation, intracellular calcium assay in transiently transfected HEK293 cells, dose response (FIG. 7E); format: cell-based
T1 sequence (Q2ABD6 1-295): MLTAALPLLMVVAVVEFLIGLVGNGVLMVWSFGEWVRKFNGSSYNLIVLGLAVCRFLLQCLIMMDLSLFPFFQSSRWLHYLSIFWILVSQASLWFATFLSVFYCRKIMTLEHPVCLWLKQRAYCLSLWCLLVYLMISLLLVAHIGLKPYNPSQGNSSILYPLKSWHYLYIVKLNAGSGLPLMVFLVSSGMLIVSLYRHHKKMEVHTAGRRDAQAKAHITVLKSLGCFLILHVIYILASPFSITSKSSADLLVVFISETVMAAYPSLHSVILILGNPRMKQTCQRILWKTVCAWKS
Description: There is a potential hydrogen bond between Ser89 and each nitrogen of 1, 10 Phenanthroline. Additional residues that can potentially make van der Waals or Pi interactions with the ligand include Pro264, Leu58, Val88, Gln90, Ile86, Leu173, Trp165, Thr258, Ala261, Tyr234, Glu257, Met260, and Trp85.
(§1) No wash step was required for the luminescent protocol.

canine T2R3 = biological target: T2, canine T2R3 (Canis lupus, UniProt Q2ABD8); test: Canine T2R3 activation, intracellular calcium assay in transiently transfected HEK293 cells, dose response (FIG. 5E); format: cell-based; settings: agonist; HEK293 transient, cT2R3 (SEQ ID NO:19); calcium fluorescence or luminescence, FLIPR Tetra; at least 8 concentrations in triplicate
T2 sequence (Q2ABD8 1-316): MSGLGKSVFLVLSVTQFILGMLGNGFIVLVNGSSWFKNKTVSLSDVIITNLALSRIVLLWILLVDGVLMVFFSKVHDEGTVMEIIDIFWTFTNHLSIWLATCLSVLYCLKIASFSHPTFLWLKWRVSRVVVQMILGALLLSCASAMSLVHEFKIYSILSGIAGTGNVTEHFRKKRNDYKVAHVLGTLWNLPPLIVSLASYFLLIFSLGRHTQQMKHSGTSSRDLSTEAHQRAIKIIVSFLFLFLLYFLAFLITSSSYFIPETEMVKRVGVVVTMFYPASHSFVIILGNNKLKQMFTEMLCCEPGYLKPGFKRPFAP
Description: Residues that can make hydrogen bonding or charged interactions with the ligand include Asn93 and Asp86. […] Additional residues making primarily van der Waals interactions with the ligand include Phe250, Gly185, Phe243, Thr90, Asn176, Val149, Ile154, Lys174, Met82, Ile85, Lys173, and Met69.
as §1

canine T2R10 = biological target: T3, canine T2R10 (Canis lupus, UniProt Q2ABD4); test: Canine T2R10 activation, intracellular calcium assay in transiently transfected HEK293 cells, dose response (FIG. 8E); format: cell-based; settings: agonist; HEK293 transient, cT2R10 (SEQ ID NO:23); calcium fluorescence or luminescence, FLIPR Tetra; at least 8 concentrations in triplicate
T3 sequence (Q2ABD4 1-322): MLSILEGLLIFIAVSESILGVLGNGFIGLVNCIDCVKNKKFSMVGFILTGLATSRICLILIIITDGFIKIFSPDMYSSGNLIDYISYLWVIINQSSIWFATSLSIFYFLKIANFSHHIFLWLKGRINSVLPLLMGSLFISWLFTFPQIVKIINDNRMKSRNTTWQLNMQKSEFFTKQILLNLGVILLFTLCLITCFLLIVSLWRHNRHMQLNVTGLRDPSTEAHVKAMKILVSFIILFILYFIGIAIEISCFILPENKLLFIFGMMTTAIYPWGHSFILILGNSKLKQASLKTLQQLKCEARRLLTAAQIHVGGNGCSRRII
Description: Lys258 and Leu180 (backbone) can potentially make hydrogen bonds with the ligand.
as §1

canine T2R1 = biological target: T4, canine T2R1 (Canis lupus, UniProt Q2ABE0); test: Canine T2R1 activation, intracellular calcium assay in transiently transfected HEK293 cells, dose response (FIG. 3E); format: cell-based
T4 sequence (Q2ABE0 1-297): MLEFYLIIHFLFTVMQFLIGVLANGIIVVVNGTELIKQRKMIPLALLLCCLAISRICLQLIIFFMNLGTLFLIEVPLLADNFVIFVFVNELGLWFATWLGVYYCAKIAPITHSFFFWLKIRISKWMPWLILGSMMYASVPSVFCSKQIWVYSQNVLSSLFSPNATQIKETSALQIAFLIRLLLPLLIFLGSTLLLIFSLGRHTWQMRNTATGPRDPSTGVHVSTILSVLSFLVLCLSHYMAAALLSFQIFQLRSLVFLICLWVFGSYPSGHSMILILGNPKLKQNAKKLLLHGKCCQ
Description: FIGS. 2A-2C show canine T2R sequence alignments. The dashed grey arrows indicate active site positions occupied by mostly asparagine or serine residues. The solid black arrows indicate structural tryptophan residues that are present in all human and cat bitter receptors as well as all canine bitter receptors except T2R12. The dashed black arrows indicate the conserved asparagine which is present in most of the bitter receptors. The conjoined solid arrows indicate the conserved LxxxR motif (IxxxR for some instances in T2R2), wherein x can be any amino acid. […] Asn89 can potentially make a hydrogen bond interaction with the ligand. Other residues that can potentially make hydrogen bonding interactions, pi interactions, or charged interactions with the ligand include Tyr239.
as §1

canine T2R2 = biological target: T5, canine T2R2 (Canis lupus, UniProt Q2ABD9); test: Canine T2R2 activation, intracellular calcium assay in transiently transfected HEK293 cells, dose response (FIG. 4E); format: cell-based; settings: agonist; HEK293 transient, cT2R2 (SEQ ID NO:18); calcium fluorescence or luminescence, FLIPR Tetra; at least 8 concentrations in triplicate
T5 sequence (Q2ABD9 1-303): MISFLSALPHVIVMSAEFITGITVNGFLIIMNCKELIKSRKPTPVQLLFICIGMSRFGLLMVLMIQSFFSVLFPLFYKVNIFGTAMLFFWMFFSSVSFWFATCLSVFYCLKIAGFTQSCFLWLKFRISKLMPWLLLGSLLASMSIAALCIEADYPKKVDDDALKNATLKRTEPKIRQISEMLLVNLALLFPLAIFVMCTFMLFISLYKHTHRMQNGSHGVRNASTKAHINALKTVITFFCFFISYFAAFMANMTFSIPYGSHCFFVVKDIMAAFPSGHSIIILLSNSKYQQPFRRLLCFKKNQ
Description: Residues that can potentially make hydrogen bond or salt bridge interactions with the ligand include Ser94, Trp90, Lys268, Tyr245, and Glu180.
as §1

canine T2R43 = canine T2R43 (Canis lupus, UniProt A0A8I3S925); test: cell-based
canine T2R43, sequence (A0A8I3S925 1-349): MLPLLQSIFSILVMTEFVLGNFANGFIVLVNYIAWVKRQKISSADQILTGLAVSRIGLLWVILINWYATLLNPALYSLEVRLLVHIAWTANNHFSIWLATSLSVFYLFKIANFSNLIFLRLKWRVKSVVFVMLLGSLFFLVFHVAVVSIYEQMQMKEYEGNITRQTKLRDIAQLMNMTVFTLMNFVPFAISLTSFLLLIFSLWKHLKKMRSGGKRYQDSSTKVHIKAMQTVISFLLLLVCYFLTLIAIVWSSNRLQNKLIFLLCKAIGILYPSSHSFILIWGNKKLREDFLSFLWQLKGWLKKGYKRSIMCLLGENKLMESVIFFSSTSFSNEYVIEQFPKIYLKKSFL
Description: In vitro functional characterization of the selected modulators was used to evaluate the effectiveness of the putative modulator compounds in modulating the activation of the bitter taste receptors.
HEK293 cells that transiently expressed a canine bitter taste receptor selected from canine T2R1, T2R2, T2R3, T2R4, T2R5, T2R10, and T2R43, were exposed to compounds to determine whether the compounds modulated the activity of the bitter taste receptors.
All transient transfections were performed with Lipofectamine2000 (Invitrogen) according to the manufactures protocol. 10 μl Lipofectamine2000 were diluted in 500 μl DMEM (Life Technologies) and incubated for 5 minutes at room temperature. […] At 27 to 30 hours post-transfection the medium was removed from the cells and 20 μl loading buffer that included a calcium sensitive fluorescent dye or luminescent substrate (Tyrode's buffer+2 μM Fluo4-AM (Invitrogen)+2.5 mM probenecid (Invitrogen) for fluorescence or Coelenterazine (Biosynth)+Tyrode's buffer for luminescence) were added for 1 hour (fluorescence) or 3 hours (luminescence) at 37° C. […]
Activation of the bitter taste receptor was determined by detecting a change in intracellular calcium levels as measured by fluorescence or luminescence of the calcium sensitive fluorescent dye or luminescent photoprotein. […] A FLIPR® Tetra system was used to measure fluorescence or luminescence. […]

SMILES: c1cnc2c(c1)ccc1cccnc12 [1, 10 Phenanthroline, 1,10-phenanthroline]
EC50 (canine T2R5): 564 ± 114 µM

SMILES: CCN(CC)CCCC(C)Nc1ccnc2cc(Cl)ccc12 (stereo not drawn) [Chloroquine]
EC50 (canine T2R3): 81 ± 11 µM

SMILES: CC(=O)OC(C)(C)/C=C/C(=O)[C@](C)(O)[C@H]1[C@H](O)C[C@@]2(C)[C@@H]3CC=C4[C@@H](C[C@H](O)C(=O)C4(C)C)[C@]3(C)C(=O)C[C@]12C [Cucurbitacin B]
EC50 (canine T2R10): 0.3 ± 0.034 µM

SMILES: CC(C)[C@@H]1CC[C@@H](C)C[C@H]1O [Menthol]
EC50 (canine T2R1): 1080 ± 216 µM

EC50 (canine T2R2): 232 ± 14 µM
SMILES: CC1COc2c(N3CCN(C)CC3)c(F)cc3c(=O)c(C(=O)O)cn1c23 (stereo not drawn) [Ofloxacin]

EC50 (canine T2R43): 126 ± 23 µM
SMILES: CCCc1cc(=O)[nH]c(=S)[nH]1 [Propylthiouracil]
